Laboratory results reported in patent US20240383955A1, “MODIFIED ANTIMICROBIAL PEPTIDES” (priority 2021, published 2024).
In brackets after ≈: the same amount, converted by molar mass. Where two headings read alike, the source gives them in different places. Square brackets hold non-standard residues; d marks the D form. Peptide text beside a SMILES is read from it. Dab = NCC[C@H](N)C(=O)O

Columns and labels:
B. cinerea = test: In vitro antifungal activity (MIC) in SFM culture media, with or without added salts
Fusarium (F. oxysporum) = test: MIC by CLSI M27/M38 methodology; type: cell-based; conditions: Table 8
Description: (§1) Testing for antifungal activity used half-strength potato dextrose broth for peptides and RPMI for comparator antifungals fluconazole and voriconazole. CLSI M27 and M38 methodologies used for to measure MICs. Minimal Inhibitory Concentration (MIC) is the concentration of the compound, protein, or peptide at which there is no significant growth of the microorganism relative to the growth of the microorganism in growth medium lacking the compound, protein, or peptide.
(§2) […] The concentration range for peptides in potato dextrose broth was 0.06-2 mcg/ml, the concentration range for fluconazole was 0.125-64 mcg/ml, and the concentration range for voriconazole was 0.03-16 mcg/ml. MICs were determined at 24-72 hours.

Aspergillus fumigatus = test: MIC by CLSI M27/M38 methodology; type: cell-based; conditions: Table 8
Description: as §1, §2

Candida auris = test: MIC by CLSI M27/M38 methodology; type: cell-based; conditions: Table 8
Description: as §1, §2

Candida albicans = test: MIC by CLSI M27/M38 methodology; type: cell-based; conditions: Table 8
Description: as §1, §2

Fusarium (F. solani) = test: MIC by CLSI M27/M38 methodology; type: cell-based; conditions: Fusarium isolate F4 (F. solani); Table 8
Description: as §1, §2

[1] = test system: B. cinerea, F. graminearum, F. oxysporum and P. capsici; type: cell-based; conditions: in vitro, low cationic conditions; for antifungal activity relative to the wild-type GMA4C_AC control: against B. cinerea, F. graminearum, F. oxysporum and P. capsici
C. parapsilosis = test: MIC by CLSI M27/M38 methodology; type: cell-based, Candida parapsilosis; conditions: C. parapsilosis isolate ATCC 22019; Table 8
Description: as §1, §2

Coccidioides sp. = type: cell-based; conditions: Table 8
[2] = Fusarium isolate F1 (F. oxysporum)
[3] = Fusarium isolate F2 (F. oxysporum)
[4] = Aspergillus fumigatus isolate AF293
[5] = Aspergillus fumigatus isolate DI15-106
[6] = Aspergillus fumigatus isolate DI15-116
[7] = Candida albicans isolate ATCC 90028
[8] = Candida albicans isolate SC5314
[9] = Coccidioides sp. isolate Cocci1
[10] = Coccidioides sp. isolate Cocci2
[11] = Coccidioides sp. isolate DI17-143

Row | SMILES | MIC, 100% (Fusarium (F. oxysporum); [2]) | MIC, 100% (Fusarium (F. oxysporum); [3]) | MIC, 100% (Aspergillus fumigatus; [4]) | MIC, 100% (Aspergillus fumigatus; [5]) | MIC, 100% (Aspergillus fumigatus; [6]) | MIC, 100% (Candida auris; Candida auris isolate DI17-46) | MIC, 100% (Candida auris; Candida auris isolate DI17-47) | MIC, 100% (Candida auris; Candida auris isolate DI17-48) | MIC, 100% (Candida albicans; [7]) | MIC, 100% (Candida albicans; Candida albicans isolate CA3) | MIC, 100% (Candida albicans; [8]) | MIC, 100% (Fusarium (F. solani)) | MIC, 100% (C. parapsilosis) | MIC, 100% (Coccidioides sp.; [9]) | MIC, 100% (Coccidioides sp.; [10]) | MIC, 100% (Coccidioides sp.; [11]) | antifungal activity relative to the wild-type GMA4C_AC control [1] | further results
1 | C[C@@H](O)[C@H](NC(=O)[C@H](CS)NC(=O)[C@H](Cc1ccccc1)NC(=O)[C@H](CS)NC(=O)[C@H](CCCNC(=N)N)NC(=O)[C@H](CCCNC(=N)N)NC(=O)[C@H](CCCNC(=N)N)NC(=O)[C@H](Cc1ccccc1)NC(=O)CNC(=O)[C@H](CCCNC(=N)N)NC(=O)[C@H](CS)NC(=O)[C@H](CCCNC(=N)N)NC(=O)CNC(=O)CN)C(=O)N[C@H](C(=O)N[C@@H](Cc1c[nH]cn1)C(=O)N[C@@H](CS)C(N)=O)[C@@H](C)O [GMA4C_AC] (H-GGRCRGFRRRCFCTTHC-NH2; N-terminus assumed) | – | – | – | – | – | – | – | – | – | – | – | – | – | – | – | – | – | SFM + 2 mM CaCl2 MIC (B. cinerea; SFM + 2 mM CaCl2, Table 10): >6 (a few μM; F. graminearum MIC (F. graminearum): 3 µM; MIC Fusarium graminearum (F. graminearum): 3 µM (≈ 6.05 µg/mL); MIC Values against F. graminearum (F. graminearum): 6 µM (≈ 12.1 µg/mL)
2 | CC[C@H](C)[C@H](NC(=O)[C@H](CCCNC(=N)N)NC(=O)[C@@H](NC(=O)[C@H](CS)NC(=O)[C@H](Cc1ccccc1)NC(=O)[C@H](CS)NC(=O)[C@H](CCCNC(=N)N)NC(=O)[C@H](CCCNC(=N)N)NC(=O)[C@H](CCCNC(=N)N)NC(=O)[C@H](Cc1ccccc1)NC(=O)CNC(=O)[C@H](CCCNC(=N)N)NC(=O)[C@H](CS)NC(=O)[C@H](CCCNC(=N)N)NC(=O)CNC(=O)CN)[C@@H](C)O)C(=O)N[C@@H](CS)C(N)=O [GMA4C_V2A] (H-GGRCRGFRRRCFCTRIC-NH2; N-terminus assumed) | 8 µg/mL (≈ 3.91 µM) | 16 µg/mL (≈ 7.82 µM) | 32 µg/mL (≈ 15.6 µM) | >32 µg/mL | >32 µg/mL | 16 µg/mL (≈ 7.82 µM) | 16 µg/mL (≈ 7.82 µM) | 16 µg/mL (≈ 7.82 µM) | 16 µg/mL (≈ 7.82 µM) | 16 µg/mL (≈ 7.82 µM) | 16 µg/mL (≈ 7.82 µM) | 8 µg/mL (≈ 3.91 µM) | 8 µg/mL (≈ 3.91 µM) | 8 µg/mL (≈ 3.91 µM) | 16 µg/mL (≈ 7.82 µM) | 16 µg/mL (≈ 7.82 µM) | – | reduction in antifungal activity relative to the wild-type GMA4C_AC control ([1]; against B. cinerea and F. graminearum): two-fold reduction
3 | N=C(N)NCCC[C@H](NC(=O)CNC(=O)[C@@H](N)Cc1ccccc1)C(=O)N[C@@H](CS)C(=O)N[C@@H](CCCNC(=N)N)C(=O)NCC(=O)N[C@@H](Cc1ccccc1)C(=O)N[C@@H](CCCNC(=N)N)C(=O)N[C@@H](CCCNC(=N)N)C(=O)N[C@@H](CCCNC(=N)N)C(=O)N[C@@H](CS)C(=O)N[C@@H](Cc1ccccc1)C(=O)N[C@@H](CS)C(=O)N[C@@H](Cc1c[nH]c2ccccc12)C(=O)N[C@@H](CCCNC(=N)N)C(=O)N[C@@H](Cc1c[nH]c2ccccc12)C(=O)N[C@@H](CS)C(N)=O [GMA4C_V4A] (H-FGRCRGFRRRCFCWRWC-NH2; N-terminus assumed) | 8 µg/mL (≈ 3.49 µM) | 8 µg/mL (≈ 3.49 µM) | 16 µg/mL (≈ 6.97 µM) | 16 µg/mL (≈ 6.97 µM) | 32 µg/mL (≈ 13.9 µM) | 8 µg/mL (≈ 3.49 µM) | 8 µg/mL (≈ 3.49 µM) | 8 µg/mL (≈ 3.49 µM) | 8 µg/mL (≈ 3.49 µM) | 8 µg/mL (≈ 3.49 µM) | 8 µg/mL (≈ 3.49 µM) | 8 µg/mL (≈ 3.49 µM) | 8 µg/mL (≈ 3.49 µM) | 4 µg/mL (≈ 1.74 µM) | 16 µg/mL (≈ 6.97 µM) | 16 µg/mL (≈ 6.97 µM) | equivalent to the wild-type GMA4C_AC control | fungal growth inhibition at 6 μM (B. cinerea; B. cinerea, in presence of 2 mM CaCl2, peptide 6 μM): inhibit fungal growth; potency of antifungal activity relative to GMA4C_AC (B. cinerea; B. cinerea, in presence of 100 mM NaCl or 100 mM KCl): 2 fold
4 | NCC[C@H](NC(=O)CNC(=O)[C@@H](N)Cc1ccccc1)C(=O)N[C@@H](CS)C(=O)N[C@@H](CCN)C(=O)NCC(=O)N[C@@H](Cc1ccccc1)C(=O)N[C@@H](CCN)C(=O)N[C@@H](CCN)C(=O)N[C@@H](CCN)C(=O)N[C@@H](CS)C(=O)N[C@@H](Cc1ccccc1)C(=O)N[C@@H](CS)C(=O)N[C@@H](Cc1c[nH]c2ccccc12)C(=O)N[C@@H](CCN)C(=O)N[C@@H](Cc1c[nH]c2ccccc12)C(=O)N[C@@H](CS)C(N)=O [GMA4C_V5A, FG(Dab)C(Dab)GF(Dab)(Dab)(Dab)CFCW(Dab)WC-NH2] (H-FG[Dab]C[Dab]GF[Dab][Dab][Dab]CFCW[Dab]WC-NH2; N-terminus assumed) | 8 µg/mL (≈ 4.08 µM) | 16 µg/mL (≈ 8.17 µM) | 32 µg/mL (≈ 16.3 µM) | >32 µg/mL | >32 µg/mL | 16 µg/mL (≈ 8.17 µM) | 16 µg/mL (≈ 8.17 µM) | 16 µg/mL (≈ 8.17 µM) | 16 µg/mL (≈ 8.17 µM) | 8 µg/mL (≈ 4.08 µM) | 16 µg/mL (≈ 8.17 µM) | 8 µg/mL (≈ 4.08 µM) | 8 µg/mL (≈ 4.08 µM) | 2 µg/mL (≈ 1.02 µM) | 16 µg/mL (≈ 8.17 µM) | 16 µg/mL (≈ 8.17 µM) | equivalent to the wild-type GMA4C_AC control | –
